From patent publication US5610185A, “Method for the treatment of hyperproliferative epithelial skin diseases by topical application of hydroxylated aromatic protein cross-linking compounds” (The United States of America as represented by the …, priority 1995, dated 1997)
Entries after “also recorded” stand apart in the source; their conditions may differ.

Tests used:
[1] = tested on: NIH 3T3 fibroblasts; test: Protein envelope formation in NIH 3T3 fibroblasts; assay type: cell-based
[2] = tested on: primary mouse keratinocytes; test: MTT cytotoxicity assay; assay type: cell-based; settings: within 4 hours, medium with 1.4 mM Ca2+
Protocol: FIGS. 3A and 3B. A: Time course for cornification of primary mouse keratinocytes in response to MC. Boxes represent […] Ca^2+, triangles represent 100 μM MC, 1.4 mM Ca^2+, and solid circles represent 1 mM MC, 1.4 mM Ca^2+. […] Cells were incubated in medium with 1.4 mM Ca^2+ and MC for 4 hours, then were incubated with MTT (0.5 mg/ml in medium) for a further 4 hours before determination of formazan production.
MTT is a dye which is reduced by mitochondrial dehydrogenase enzymes to a blue formazan product. Ability of cells to reduce MTT can be used to measure cell viability (Mosmann T., J. Immunol. Methods, 65, 55-63, 1983). Cells were incubated in 96 well plates with or without MC for the indicated time, then were incubated for a further 4 hours with 0.5 mg/ml MTT. Medium was removed and 88.9% DMSO, 11.11% glycine buffer (100 mM glycine, 100 mM NaCL pH 10.5) was added to each well. Plates were shaken for 20 minutes to allow formazan dissolution, then absorbance was measured on a plate reader at 570 nm.

[3] = tested on: primary mouse keratinocytes; test: Growth inhibition (cell count), primary mouse keratinocytes; assay type: cell-based; settings: Keratinocyte, 72 h, 25 μM MC, 3 days, read-out: cells that continued to grow
Protocol: FIG. 4. Cross-linked Protein Production vs Growth Inhibition in Mouse Primary Keratinocytes. Cell growth is represented by black squares and cross-linked protein production by white squares. Results are ±SD (n=3) of one experiment, representative of three.
Cells were seeded at low density and were treated with MC for 3 days. Cells were then counted and increase in cell number was compared to untreated controls, or cells were processed for cross-linked protein. (FIG. 4) Protein cross-linking was rapid, commencing within 4 hours at 1 mM in mouse primary keratinocytes, (FIG. 3A) and was accompanied by cell death, as measured by the MTT assay (FIG. 3B).

[4] = tested on: A431 human epidermoid carcinoma cells; test: Growth inhibition (cell count), A431 cells; assay type: cell-based; settings: 75 μM MC, 3 days
Protocol: FIG. 5. Cross-linked Protein Production vs Growth Inhibition in A431 ([…]) Cells. Cell growth is represented by black circles and crosslinked protein production by white circles. Results are ±SD (n=3) of one experiment, representative of three.
Cells were seeded at low density and were treated with MC for 3 days. Cells were then counted and increase in cell number was compared to untreated controls, or cells were processed for cross-linked protein (FIG. 5).

[5] = tested on: EGF receptor; test: Western blot analysis of in vitro assay with EGF receptor; assay type: biochemical
[6] = tested on: SV 40 infected human keratinocytes; test: Cornified envelope (cross-linked protein) assay, SV 40 infected keratinocytes; assay type: cell-based; settings: 48 h, 0.1-1 mM
Excerpt: FIG. 1. MC Increases Cross-linked Protein in Epidermal Cell Lines. Black squares represent HPV 18 human epithelial keratinocytes; black circles represent SV 40 infected human keratinocytes; black triangles represent (SQCC-Y1) cells; white triangles represent (SP-1) benign tumor mouse keratinocytes; white squares represent (308 cells) benign mouse keratinocytes; and white circles represent (I-7) cells mouse squamous cell carcinoma.
Primary mouse keratinocytes were isolated from BALB/c newborn mouse skin. Primary keratinocytes, the benign neoplastic keratinocyte cell lines 308 and SP-1 (Strickland et al, Cancer Res., 48, 165-169, 1988) and the mouse squamous cell carcinoma line 1-7 (Greenhalgh et al., Proc. Natl. Acad. Sci., 87, 643-647, 1990) were grown in Eagle's minimal essential medium with 8% fetal calf serum (FCS) (chelexed) and penicillin 20 iu/ml, streptomycin 20 ug/ml (P/S). Unless otherwise indicated, the Ca^2+ concentration in medium was adjusted to 0.05 mM (Hennings et al., Cells, 19, 245-254, 1980). […]
Cells were incubated with MC for 48 hours, then cross-linked protein was isolated and measured as described in Example 1.
The assay measures insoluble cross-linked protein envelopes as described (Hough-Monroe et al. Analytical biochem., 199, 25-28, 1991), with modifications as follows. […] Absorbance of eluate was measured on a Titertek plate reader at 600 nm.

[7] = tested on: normal human epidermal keratinocytes from foreskin; test: Cross-linking in primary normal human epidermal keratinocytes; assay type: cell-based; settings: Keratinocyte, read-out: concentration for response in cross-linking
Excerpt: The increased sensitivity of mouse primary keratinocytes for the cross-linking effect is not related to the normal phenotype. […] Hydroxylated aromatic protein crosslinking compounds induce the cross-linking of cell proteins into cornified envelope-like structures, causing cell death by a non-biological mechanism which emulates the normal differentiation program of epidermal keratinocytes. In addition to their growth inhibitory properties, the unique protein cross-linking ability of the class of compounds described in the instant invention proffers a new mechanism for the topical treatment of hyperproliferative diseases of the skin.

COC(=O)C=Cc1cc(O)ccc1O [MC, methyl 2,5-dihydroxycinnamate]
effect of DTT on cross-linking by MC ([1]; 3T3 cells, simultaneous DTT 20 mM, 37° and 4° C.): prevented cross-linking | protein envelopes induced in NIH 3T3 fibroblasts ([1]; even when incubated at 4° C. in phosphate buffered saline): induced protein envelopes | MTT reduction / cell death [2]: cell death; also recorded: Inhibits MTT Reduction | activity at 25 µM [3]: 20% | inhibition of cell growth [4]: inhibited cell growth significantly | MC-induced mobility retardation of the EGF receptor, effect of DTT ([5]; DTT, Western blot): did inhibit MC-induced mobility retardation of the EGF receptor | tyrosine kinase inhibition in presence of DTT ([5]; effect of DTT on MC tyrosine kinase inhibition, in vitro): did not prevent tyrosine kinase inhibition | cross-linked protein (envelope production) [6]: induced crosslinked envelope production; also recorded: increased cross-linked protein in a dose-dependent manner | minimal effective concentration [7]: ≥ 250 µM
